Columns and labels:
Experiment in all cases: relative viability (nuclei count vs DMSO), 5 days (fraction); higher = more cells survive
[1] = compound: CS(=O)(=O)CCNCc1ccc(-c2ccc3ncnc(Nc4ccc(OCc5cccc(F)c5)c(Cl)c4)c3c2)o1 [Lapatinib] + Nc1nc2[nH]cc(CCc3ccc(C(=O)N[C@@H](CCC(=O)O)C(=O)O)cc3)c2c(=O)[nH]1 [Pemetrexed] (partner 0.2 µM)
Summary of the method: (§1)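 Each reported value is a median over duplicate plates. It expresses relative viability: treated-well nuclei count divided by vehicle-well nuclei count. Lung cancer cell lines in 1536-well plates were dosed by pin tool a day after seeding, alone with one drug or with a fixed anchor-drug dose plus five library-drug doses (not always all listed) in √10 steps, and nuclei were counted after 5 days.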

[2] = compound: CC1=NC=CC(=C1)C2=CC=C(C=C2)CC(=O)NC3=CC=C(C=C3)C4=CN=CC=C4 [Wnt-C59] + CC(=O)c1c(C)c2cnc(Nc3ccc(N4CCNCC4)cn3)nc2n(C2CCCC2)c1=O [Palbociclib] (partner 0.5 µM)
Summary of the method: as §1

[3] = compound: CC1=NC=CC(=C1)C2=CC=C(C=C2)CC(=O)NC3=CC=C(C=C3)C4=CN=CC=C4 [Wnt-C59] + Cc1nc(Nc2ncc(C(=O)Nc3c(C)cccc3Cl)s2)cc(N2CCN(CCO)CC2)n1 [Dasatinib] (partner 0.075 µM)
Summary of the method: as §1

[4] = compound: CS(=O)(=O)CCNCc1ccc(-c2ccc3ncnc(Nc4ccc(OCc5cccc(F)c5)c(Cl)c4)c3c2)o1 [Lapatinib] + COc1cccc2cc(-c3nc([C@H]4CC[C@H](C(=O)O)CC4)n4ncnc(N)c34)[nH]c12 [OSI-027] (partner 0.5 µM)
Summary of the method: as §1

Cell Line	relative viability ([1]; first compound 0.02 µM)	relative viability ([1]; first compound 0.06325 µM)	relative viability ([1]; first compound 0.2 µM)	relative viability ([1]; first compound 0.6325 µM)	relative viability ([1]; first compound 2 µM)	relative viability ([2]; first compound 0.001 µM)	relative viability ([2]; first compound 0.01 µM)	relative viability ([2]; first compound 0.03162 µM)	relative viability ([2]; first compound 0.1 µM)	relative viability ([3]; first compound 0.001 µM)	relative viability ([3]; first compound 0.01 µM)	relative viability ([3]; first compound 0.03162 µM)	relative viability ([3]; first compound 0.1 µM)	relative viability ([4]; first compound 0.02 µM)	relative viability ([4]; first compound 0.06325 µM)	relative viability ([4]; first compound 0.2 µM)	relative viability ([4]; first compound 0.6325 µM)	relative viability ([4]; first compound 2 µM)
LOU-NH91	0.377	0.41	0.39	0.415	0.458	0.512	0.573	0.564	0.513	0.6	0.529	0.523	0.57	0.608	0.577	0.51	0.589	0.453
LK-2	0.137		0.261		0.264	0.524	0.739	0.705	0.535	0.379	0.372	0.268	0.292	0.217		0.228	0.238	0.228
NCI-H322M	0.648	0.54	0.571	0.575	0.49	0.465	0.495	0.427	0.447	0.266	0.26	0.216	0.228	0.591	0.374	0.571	0.46	0.431
NCI-H650		0.881	0.913	1.08	0.963	0.276	0.344	0.302	0.323	0.43	0.512	0.457	0.526		0.411	0.468	0.505	0.543
PC-3 [JPC-3]		1.13		0.995	0.588	0.498	0.532	0.505	0.512	1.01	1.05	1.13	1.07	0.73	0.624	0.725	0.756	0.565
NCI-H1355	0.833	0.93	0.948	1.06	0.889	0.408	0.375	0.408	0.375	0.725	0.533	0.711	0.617		0.216	0.342	0.367	0.268
COR-L23	0.214	0.189	0.2	0.204	0.203	0.347	0.279	0.321	0.264	0.483	0.571	0.641	0.413	0.771	0.651	0.769	0.721	0.654
201T	0.377	0.288	0.298	0.359	0.326	0.347	0.352	0.359	0.358	0.615	0.578	0.505	0.558	0.794	0.598	0.597	0.807	0.703
NCI-H2342	0.576	0.712	0.723	0.776	0.714	0.491	0.488	0.55	0.504	0.326	0.326	0.358	0.337	0.552	0.503	0.506	0.562	0.55
NCI-H1792			0.936	0.75	0.656	0.673	0.655	0.672	0.656	0.753	0.771	0.992	0.718	0.665		0.558	0.533	0.31
NCI-H661	0.872	0.773	0.834	0.736	0.756	0.409	0.357	0.436	0.387	0.914	0.736	0.907	0.872	0.654	0.322	0.545	0.495	0.424
HCC-15		0.212	0.223	0.212	0.203	0.769	0.735	0.7	0.717	0.667	0.634	0.644	0.574		0.386	0.682	0.727	0.612
NCI-H2405		0.977		1.04	1.01	0.516	0.506	0.498	0.473	0.207	0.232	0.221	0.233	0.441	0.382	0.655	0.649	0.604
SW 900		0.432	0.494	0.471	0.45	0.48	0.461	0.608	0.54	0.545	0.708	0.768	0.624		0.576	0.532	0.496	0.488
NCI-H838	0.275	0.244	0.258	0.311	0.251	0.238	0.22	0.238	0.221	0.291	0.29	0.288	0.302	0.401	0.256	0.369	0.383	0.332
EPLC-272H	0.342	0.235	0.337	0.288	0.21	0.306	0.277	0.352	0.316	0.399	0.269	0.399	0.36			0.256	0.227	0.224
NCI-H1915		0.457	0.456	0.465	0.473	0.516	0.521	0.473	0.572	0.315	0.316	0.303	0.317		0.601	0.629	0.607	0.619
EMC-BAC-2		0.452	0.475	0.475	0.45	0.496	0.437	0.438	0.413	0.327	0.36	0.34	0.341	0.339	0.277	0.377	0.392	0.346

— the supplement of paper PMC10307832
